# In patent US20090221651A1, “CHEMICAL PRECONDITIONING AS A PREVENTATIVE OR TREATMENT FOR EXCITOTOXIC SYNAPTIC DAMAGE” (priority 2005, published 2009):
# Values joined by “and” are separate entries in the source; they are usually repeats but may differ in a detail not shown here. Equal entries are not always repeated. “Also recorded” adds a separate entry of the source.
# What was measured:
# Type in all cases: cell-based, rat
# [1] = system: dissociated hippocampal cultures; experiment: Dendritic beading in cultured neurons after depolarizing KCl pulses; settings: for dendritic beading after 1 s KCl pulses in cPAF-exposed cultures: CNQX 10 μM together with AP-5 50 μM
# Method: (§1) Primary hippocampal cultures and dendrite imaging. Dissociated hippocampal cultures from embryonic (E18) rats were prepared as previously described (53), plated on coverslips coated with poly-D-lysine and mouse laminin (reagents from Sigma-Aldrich unless otherwise noted) in Neurobasal plus B-27 media (GIBCO). After one week, 53 mM NaCl was added (to match solutions for physiological experiments) and antioxidants were removed from the media. Experiments were repeated using cultures from multiple dissections. Rodents were housed and treated in compliance with University of Rochester Committee on Animal Resources and NIH policies, and New York State and federal statutes.
# (§2) At 20-24 days in vitro (DIV) neurons were transfected with EYFP (Clontech) or mRFP-1 (kind gift of Roger Tsien) vectors driven by CMV promoter, in a 1:2 ratio with Lipofectamine 2000 (Invitrogen). Serial fluorescence images of individual, live neurons (23-30 DIV) before and after exposure to 130 nM cPAF (Biomol) and/or synaptic stimulation by KCl were captured. For 60-hour exposure experiments, a 10 mM stock solution of cPAF (in EtOH) or vehicle was diluted into culture media. Neuronal survival was measured by Hoechst nuclear staining and propidium iodide exclusion.
# For acute KCl stimulation experiments, coverslips were perfused in a custom-made chamber (200 μl) with bath solution (in mM: NaCl 139.5, KCl 2.5, CaCl2 2, MgCl2 1, glucose 24, HEPES 5, glycine 0.01, pH 7.3) at […], and exposed cultures to vehicle or cPAF for 20-90 min prior to stimulation. KCl (90 mM) was locally applied over the entire dendritic arbor of EYFP- or mRFP-expressing neurons in three 1- or 5-s pulses (10 s apart) using an 8-channel drug delivery system (ALA Scientific Instruments). In some experiments BN52021 (Biomol) or CNQX and AP-5 were added.
# (§3) Dendrite morphology. For in vitro experiments pre- and post-exposure images of the same cells were compared. A neuron was considered beaded if its dendrites developed any focal swellings during the experiments (10, 14), though multiple dendrites were typically involved. Changes in spine number were determined by counting spines on the same dendrites before and after treatment.
# (§4) Statistics. Differences in frequencies of dendritic beading were analyzed by Chi square, and changes in dendritic spine number by paired t-test. EPSP slope data were pooled over 10-minute intervals and used two-tailed t-tests to compare between groups or time points. A 0.05 significance level was used for all tests.
# [2] = system: CA1 pyramidal neurons; experiment: Dendritic beading after high-frequency Schaffer collateral stimulation (HFS) in acute hippocampal slices; settings: for effect on HFS-induced dendritic beading in cPAF-exposed slices: BAPTA 5 mM in pipette, Ac-DEVD-CHO 10 μM intracellular, L-NAME 100 μM, diazoxide 30 μM bath 40 to 60 min prior to HFS; for rate of beading following HFS in cPAF-exposed neurons: 1 μM cPAF plus CV-3988 10 μM, BN52021 2 μM or L-NAME 100 μM
# Method: (§5) Imaging and LTP in acute hippocampal slices. Brains were removed from 17-30 day-old male Sprague-Dawley rats anesthetized with ketamine (180 μg/g), submerged them in ice-cold solution (in mM: NaCl 125, KCl 5, NaH2PO4 1.25, NaHCO3 28, CaCl2 0.5, MgCl2 4, D-glucose 25, kynurenic acid 1, bubbled with 95% O2/5% CO2), and cut 250 μm coronal slices using a vibroslice. Slices recovered in artificial cerebrospinal fluid (aCSF, in mM: NaCl 125, KCl 2.5, NaH2PO4 1.25, NaHCO3 25, CaCl2 2, MgCl2 1, D-glucose 25, bubbled with 95% O2/5% CO2) for >90 min prior to experiments.
# (§6) Slices were transferred to a custom-made recording chamber perfused (1 ml/min) with aCSF containing 1 μM cPAF or vehicle. Membrane potentials from CA1 pyramidal neurons were recorded via whole-cell patch clamp, using 4-6 MΩ electrodes (filled with, mM: KCl 20, potassium gluconate 130, EGTA 0.5, HEPES10, MgSO4 2, ATP 2.5, GTP 0.5, pH 7.3) and a Multiclamp 700A amplifier with pClamp 9 software (Axon Instruments). Afferents were stimulated by constant current pulses (200 μs) via a bipolar stimulating electrode 50-200 μm away in the stratum radiatum. 10 μM bicuculline were included in the aCSF to isolate EPSPs, and adjusted stimulating intensity to elicit EPSPs 30% of maximal. After >10 min of test pulses (every 15 s), […] a high-frequency stimulus (HFS; three 1 s, 100 Hz trains, 20 s apart, at test-pulse intensity), then resumed test pulses for ≧50 min. […] Rising EPSP slope was used instead of peak amplitude as an index of synaptic efficacy to, avoid complication by action potentials evoked by some EPSPs after HFS. Amplitude (maximal sustained depolarization) and duration (at >25% maximal amplitude) of depolarization during HFS were also quantified.
# Fluorescent images of dendrites from recorded cells were collected before and after HFS, after allowing 30 μM Alexa Fluor 568 hydrazide (Molecular Probes) in the recording electrode to fill the cell for >20 min. Using an external shutter to limit light exposure, image frames were captured at multiple focal planes and combined optimally-focused portions of these frames to display a composite image.
# as §3, §4
# [3] = system: CA1 pyramidal neurons; experiment: EPSP potentiation (LTP) after HFS in acute hippocampal slices, whole-cell patch clamp; settings: for effect on synaptic potentiation / LTP in cPAF-exposed slices: BAPTA 5 mM, Ac-DEVD-CHO 10 μM, diazoxide 30 μM, PAF-R antagonists
# Method: as §5, §6, §4
# [4] = system: CA1 pyramidal neurons; experiment: Membrane potential and depolarization during HFS in hippocampal slices
# Method: as §5
# Slices were transferred to a custom-made recording chamber perfused (1 ml/min) with aCSF containing 1 μM cPAF or vehicle. Membrane potentials from CA1 pyramidal neurons were recorded via whole-cell patch clamp, using 4-6 MΩ electrodes (filled with, mM: KCl 20, potassium gluconate 130, EGTA 0.5, HEPES10, MgSO4 2, ATP 2.5, GTP 0.5, pH 7.3) and a Multiclamp 700A amplifier with pClamp 9 software (Axon Instruments). Afferents were stimulated by constant current pulses (200 μs) via a bipolar stimulating electrode 50-200 μm away in the stratum radiatum. 10 μM bicuculline were included in the aCSF to isolate EPSPs, and adjusted stimulating intensity to elicit EPSPs 30% of maximal. […] Amplitude (maximal sustained depolarization) and duration (at >25% maximal amplitude) of depolarization during HFS were also quantified.
# [5] = system: hippocampal slices; experiment: Rhodamine 123 fluorescence (mitochondrial depolarization) after HFS in hippocampal slices; settings: 1 μM cPAF
# Method: The present experiments measure changes in mitochondrial membrane potential during and after HFS in hippocampal slices using the rhodamine 123, a cationic dye that distributes across the mitochondrial membrane in a voltage-sensitive manner. When loaded into hippocampal slices at a dose of 26 μM, rhodamine 123 accumulates in the mitochondria at high concentrations that causes its fluorescence to quench; if the mitochondria are subsequently depolarized, rhodamine 123 is released into the cytoplasm and its fluorescent signal increases. Mitochondrial hyperpolarization, conversely, drives more dye from the cytoplasm into the mitochondria, increasing quenching and reducing the signal. Reliability of this interpretation was confirmed by control experiments using FCCP and oligomycin to respectively depolarize and hyperpolarize the mitochondria.
# [6] = system: dissociated hippocampal cultures; experiment: 60-hour cPAF exposure of dissociated hippocampal cultures: dendritic beading, spine number, neuronal survival; settings: 130 nM cPAF, 60-hour exposure
# Method: as §1, §2, §3, §4
# [7] = 130 nM cPAF, BN52021 10 μM pre-treatment
# [8] = cPAF-treated slices plus PAF-R antagonist
# [9] = cPAF-exposed slices plus compound (BN52021 2 μM, CV-3988 10 μM, Ac-DEVD-CHO 10 μM, diazoxide 30 μM), 40 to 50 min
compound,measurement,setting,value
NC(CCCP(=O)(O)O)C(=O)O (stereo not shown) [AP-5],dendritic beading after 1 s KCl pulses in cPAF-exposed cultures,[1]; [7],prevented
O=C(O)CN(CC(=O)O)c1ccccc1OCCOc1ccccc1N(CC(=O)O)CC(=O)O [BAPTA],effect on HFS-induced dendritic beading in cPAF-exposed slices,[2],prevented dendritic beading; also recorded: eliminated dendritic beading
same,effect on synaptic potentiation / LTP in cPAF-exposed slices,[3],eliminated synaptic potentiation
CC1C(=O)OC2C(O)C34C5CC(C(C)(C)C)C36C(OC(=O)C6O)OC4(C(=O)O5)C12O (stereo not shown) [BN52021],dendritic beading after 1 s KCl pulses in cPAF-exposed cultures,[1]; [7],no cells developed beading; also recorded: blocked the increase in vulnerability
same,cells beaded after 5 s KCl pulses,"[1]; cPAF-exposed, BN52021 10 μM pre-treatment",86%
same,rate of beading following HFS in cPAF-exposed neurons,[2],10%
same,cells with dendritic beading elicited by HFS,[2]; [8],1 of 10
same,EPSP potentiation following HFS,[3]; [9],1.29±0.05 relative to baseline
N#Cc1cc2[nH]c(=O)c(=O)[nH]c2cc1[N+](=O)[O-] [CNQX],dendritic beading after 1 s KCl pulses in cPAF-exposed cultures,[1]; [7],prevented
CCCCCCCCCCCCCCCCCCNC(=O)OCC(COP(=O)([O-])OCC[n+]1ccsc1)OC (stereo not shown) [CV-3988],rate of beading following HFS in cPAF-exposed neurons,[2],14%
same,cells with dendritic beading elicited by HFS,[2]; [8],1 of 7
same,EPSP potentiation following HFS,[3]; [9],1.07±0.13 relative to baseline
COC(=O)[C@@H](N)CCCNC(=N)N[N+](=O)[O-] [L-NAME],rate of beading following HFS in cPAF-exposed neurons,[2],57%
same,effect on HFS-induced dendritic beading in cPAF-exposed slices,[2],no protection; also recorded: no effect
CCCCCCCCCCCCCCCCOC[C@H](COP(=O)([O-])OCC[N+](C)(C)C)OC(=O)NC [cPAF],baseline membrane potential,[4]; 1 μM cPAF for up to 7 hours,−63±3.6 mV
same,duration of depolarization during HFS,[4]; cPAF-exposed neurons,693 ± 296 ms
same,cells beaded in response to three 1 s KCl pulses,"[1]; 130 nM cPAF, acute 20 to 90 min exposure",90%
same,increase in rhodamine 123 fluorescence compared to control slices,[5],four-fold larger; also recorded: four-fold greater
same,peak increase in rhodamine 123 fluorescence above baseline following HFS,"[5]; CA1 stratum radiatum, 55 s after start of HFS",5.90±1.86%
same,recorded neurons with dendritic beading following HFS,[2]; 1 μM cPAF for 20 to 60 minutes prior to recording,57%
same,delay to appearance of HFS-induced dendritic beading,[2]; cPAF-exposed cells,15 to 35 min
same,cells with dendritic beading elicited by HFS,[2]; cPAF-treated slices,11 of 19
same,decrease in numbers of dendritic spines,[6],45.1±5.0% and 45±5%
same,neuronal survival by Hoechst and propidium iodide staining,[6],80.2±4.3%
same,neurons that developed dendritic beading,[6]; serially-imaged cells,56%
same,EPSP potentiation following HFS,"[3]; 1 μM cPAF, cells that did not develop dendritic beading, 40 to 50 min",1.60±0.26 relative to baseline
same,EPSP potentiation following HFS,"[3]; 1 μM cPAF, cells whose dendrites beaded, 40 to 50 min",0.84±0.12 relative to baseline
Ac-DEVD-CHO,effect on HFS-induced dendritic beading in cPAF-exposed slices,[2],prevented dendritic beading
same,effect on synaptic potentiation / LTP in cPAF-exposed slices,[3],failed to rescue LTP; also recorded: failed to restore a lasting potentiation
same,EPSP potentiation following HFS,"[3]; cPAF-exposed slices plus Ac-DEVD-CHO 10 μM, 0 to 10 min",1.97±0.28 relative to baseline
same,EPSP potentiation following HFS,[3]; [9],1.22±0.19 relative to baseline
